Literature values in PMC10950972, “Relative bioavailability of fedratinib through various alternative oral administration methods in healthy adults” (Cancer Chemotherapy and Pharmacology, 2023).

What was measured:
[1] = set-up: method as in PMID 34480861; settings: patients; compared with healthy adults and patients with rheumatoid arthritis; cited from earlier work
[2] = set-up: method as in PMID 15598479; settings: cited from earlier work

Structure (SMILES)	PK after solution of crushed tablets via nasogastric tube vs PK previously reported [1]	Differences in bioavailability and PK parameters, intact capsules vs nasogastric administration [2]
CCS(=O)(=O)N1CC(CC#N)(n2cc(-c3ncnc4[nH]ccc34)cn2)C1 [baricitinib]	consistent with PK results previously reported	–
COc1cc2ncnc(Nc3ccc(F)c(Cl)c3)c2cc1OCCCN1CCOCC1 [gefitinib]	–	no clinically significant differences
